Source: ChEMBL document CHEMBL5038633 (J Med Chem, 2022)
*1 amine or outer side, *2 acyl side, *3 side chain or, on linkers, in order; H or OH if unused. Where a SMILES comes first, the peptide text is derived from it. Bridges are numbered along the chain shown (N, C = ends). [ ]: non-standard residue; d: D form. Abu(4,4,4-F3) = N[C@@H](CC(F)(F)F)C(=O)O; Phe(3-Cl) = N[C@@H](Cc1cccc(Cl)c1)C(=O)O; X1 = O=C(O)/C=C/[C@H](N[*:1])C(=O)[*:2]; Cha = N[C@@H](CC1CCCCC1)C(=O)O; Chg = N[C@H](C(=O)O)C1CCCCC1

Tests used:
[1] = biological target: Sodium channel protein type 4 subunit alpha (Homo sapiens, UniProt P35499); assay: Inhibition of human Nav1.4 stably expressed in cells with train pulses to -20 mV at 0.1 Hz and holding potential of -95 mV by whole-cell Qube-automated patch clamp assay; assay type: cell-based
Sodium channel protein type 4 subunit alpha, sequence (P35499 whole entry): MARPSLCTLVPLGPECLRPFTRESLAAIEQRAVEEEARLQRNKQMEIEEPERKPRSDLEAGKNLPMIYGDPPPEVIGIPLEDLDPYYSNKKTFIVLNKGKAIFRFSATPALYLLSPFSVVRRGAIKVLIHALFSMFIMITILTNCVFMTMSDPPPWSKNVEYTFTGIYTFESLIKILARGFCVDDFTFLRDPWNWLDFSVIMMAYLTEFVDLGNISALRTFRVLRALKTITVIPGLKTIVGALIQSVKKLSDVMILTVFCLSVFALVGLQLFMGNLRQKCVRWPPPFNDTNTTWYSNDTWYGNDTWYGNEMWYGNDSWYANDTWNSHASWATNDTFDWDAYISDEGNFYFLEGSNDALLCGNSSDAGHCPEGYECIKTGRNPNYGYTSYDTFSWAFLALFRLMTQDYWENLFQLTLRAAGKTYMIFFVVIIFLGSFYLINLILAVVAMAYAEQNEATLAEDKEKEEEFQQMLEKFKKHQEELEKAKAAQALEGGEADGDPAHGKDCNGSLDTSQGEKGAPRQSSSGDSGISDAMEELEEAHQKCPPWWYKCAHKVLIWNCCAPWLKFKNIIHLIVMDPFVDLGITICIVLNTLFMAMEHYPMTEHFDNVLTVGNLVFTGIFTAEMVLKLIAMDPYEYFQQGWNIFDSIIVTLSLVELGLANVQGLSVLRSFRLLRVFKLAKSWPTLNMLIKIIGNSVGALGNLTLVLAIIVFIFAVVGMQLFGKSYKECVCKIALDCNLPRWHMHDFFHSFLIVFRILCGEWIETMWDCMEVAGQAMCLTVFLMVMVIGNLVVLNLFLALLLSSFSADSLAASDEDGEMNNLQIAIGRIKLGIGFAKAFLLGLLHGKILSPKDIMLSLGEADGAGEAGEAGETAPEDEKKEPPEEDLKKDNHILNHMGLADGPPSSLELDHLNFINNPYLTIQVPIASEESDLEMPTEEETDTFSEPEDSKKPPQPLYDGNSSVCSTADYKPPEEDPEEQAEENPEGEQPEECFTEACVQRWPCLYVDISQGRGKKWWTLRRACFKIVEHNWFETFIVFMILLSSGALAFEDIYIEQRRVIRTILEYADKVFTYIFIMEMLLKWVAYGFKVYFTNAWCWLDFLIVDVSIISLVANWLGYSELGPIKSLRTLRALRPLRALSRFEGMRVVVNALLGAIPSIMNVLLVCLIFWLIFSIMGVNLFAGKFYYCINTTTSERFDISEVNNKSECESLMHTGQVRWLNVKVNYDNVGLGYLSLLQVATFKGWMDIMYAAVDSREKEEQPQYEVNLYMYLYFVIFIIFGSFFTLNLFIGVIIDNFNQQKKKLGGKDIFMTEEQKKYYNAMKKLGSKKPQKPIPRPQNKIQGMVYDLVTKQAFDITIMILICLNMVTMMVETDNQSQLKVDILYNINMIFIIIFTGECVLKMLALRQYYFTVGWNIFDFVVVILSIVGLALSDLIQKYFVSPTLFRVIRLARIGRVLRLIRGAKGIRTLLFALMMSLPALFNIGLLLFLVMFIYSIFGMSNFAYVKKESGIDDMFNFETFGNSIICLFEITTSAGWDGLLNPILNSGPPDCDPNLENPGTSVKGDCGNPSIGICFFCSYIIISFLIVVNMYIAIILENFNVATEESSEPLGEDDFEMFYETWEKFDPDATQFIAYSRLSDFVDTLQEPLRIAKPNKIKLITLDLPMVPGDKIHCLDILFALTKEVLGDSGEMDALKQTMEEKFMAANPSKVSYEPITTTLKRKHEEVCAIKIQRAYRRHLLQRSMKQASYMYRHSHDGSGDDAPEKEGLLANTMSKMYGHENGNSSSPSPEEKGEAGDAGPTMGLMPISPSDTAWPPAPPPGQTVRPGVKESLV

[2] = Inhibition of mast cell degranulation in Wistar Han rat peritoneal lavage mast cells assessed as inhibition histamine release by measuring lowest concentration at which histamine release observed measured after 30 mins; assay type: functional; settings: 0.5 h
[3] = biological target: Sodium channel protein type 8 subunit alpha (Homo sapiens, UniProt Q9UQD0); assay: Inhibition of human Nav1.6 stably expressed in cells with train pulses to -20 mV at 0.1 Hz and holding potential of -85 mV by whole-cell Qube-automated patch clamp assay; assay type: cell-based
Sodium channel protein type 8 subunit alpha, sequence (Q9UQD0 whole entry): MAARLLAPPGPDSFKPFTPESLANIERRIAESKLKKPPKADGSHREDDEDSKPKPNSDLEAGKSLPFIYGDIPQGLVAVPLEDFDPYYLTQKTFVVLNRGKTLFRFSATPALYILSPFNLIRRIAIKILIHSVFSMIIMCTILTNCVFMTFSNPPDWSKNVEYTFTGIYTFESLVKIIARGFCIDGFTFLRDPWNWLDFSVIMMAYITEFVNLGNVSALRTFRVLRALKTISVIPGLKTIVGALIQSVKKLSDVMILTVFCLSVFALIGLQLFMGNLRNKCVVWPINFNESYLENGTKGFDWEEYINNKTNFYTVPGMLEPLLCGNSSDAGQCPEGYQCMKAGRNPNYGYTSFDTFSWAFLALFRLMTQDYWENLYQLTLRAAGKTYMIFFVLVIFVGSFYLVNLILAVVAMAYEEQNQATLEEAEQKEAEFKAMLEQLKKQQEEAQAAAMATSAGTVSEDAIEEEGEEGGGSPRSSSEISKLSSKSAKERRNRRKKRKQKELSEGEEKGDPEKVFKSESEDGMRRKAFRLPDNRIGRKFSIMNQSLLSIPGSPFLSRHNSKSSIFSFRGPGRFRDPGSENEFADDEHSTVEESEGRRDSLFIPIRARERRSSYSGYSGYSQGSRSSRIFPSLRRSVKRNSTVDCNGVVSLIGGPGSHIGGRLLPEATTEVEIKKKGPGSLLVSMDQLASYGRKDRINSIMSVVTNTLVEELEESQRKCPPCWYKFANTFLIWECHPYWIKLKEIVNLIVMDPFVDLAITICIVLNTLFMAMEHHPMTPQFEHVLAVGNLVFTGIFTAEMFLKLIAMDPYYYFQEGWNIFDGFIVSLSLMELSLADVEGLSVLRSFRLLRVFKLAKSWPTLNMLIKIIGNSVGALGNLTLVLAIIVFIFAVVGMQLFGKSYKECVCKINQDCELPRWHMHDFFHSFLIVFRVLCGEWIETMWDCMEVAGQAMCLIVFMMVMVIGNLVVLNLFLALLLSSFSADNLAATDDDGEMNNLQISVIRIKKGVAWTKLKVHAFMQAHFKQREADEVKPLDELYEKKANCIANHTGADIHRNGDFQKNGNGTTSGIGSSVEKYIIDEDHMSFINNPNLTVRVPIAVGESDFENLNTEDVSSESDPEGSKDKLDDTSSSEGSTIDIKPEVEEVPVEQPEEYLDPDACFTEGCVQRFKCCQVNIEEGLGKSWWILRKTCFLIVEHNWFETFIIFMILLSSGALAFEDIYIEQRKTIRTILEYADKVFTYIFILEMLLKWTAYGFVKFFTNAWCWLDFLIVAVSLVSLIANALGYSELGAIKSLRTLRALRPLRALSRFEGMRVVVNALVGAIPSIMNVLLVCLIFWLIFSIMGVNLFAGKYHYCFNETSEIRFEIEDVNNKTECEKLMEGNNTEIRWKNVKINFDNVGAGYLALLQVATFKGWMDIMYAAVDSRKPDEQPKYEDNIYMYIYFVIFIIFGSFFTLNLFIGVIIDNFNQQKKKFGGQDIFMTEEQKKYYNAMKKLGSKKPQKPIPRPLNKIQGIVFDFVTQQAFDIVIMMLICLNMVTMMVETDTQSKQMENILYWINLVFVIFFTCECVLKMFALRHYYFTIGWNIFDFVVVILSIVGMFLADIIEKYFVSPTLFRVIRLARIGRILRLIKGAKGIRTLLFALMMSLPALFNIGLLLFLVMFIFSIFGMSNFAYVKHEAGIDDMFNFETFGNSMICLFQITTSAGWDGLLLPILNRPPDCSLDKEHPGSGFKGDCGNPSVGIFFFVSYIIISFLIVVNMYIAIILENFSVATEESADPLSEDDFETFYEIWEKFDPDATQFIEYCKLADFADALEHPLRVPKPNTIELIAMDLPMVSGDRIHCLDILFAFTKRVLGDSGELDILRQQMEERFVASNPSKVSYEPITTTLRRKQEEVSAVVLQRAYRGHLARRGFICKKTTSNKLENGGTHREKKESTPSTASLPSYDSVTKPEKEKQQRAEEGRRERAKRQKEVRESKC

[4] = biological target: Sodium channel protein type 9 subunit alpha (Homo sapiens, UniProt Q15858); assay: Inhibition of human Nav1.7 stably expressed in cells with train pulses to -20 mV at 0.1 Hz and holding potential of -95 mV by Qube-automated patch clamp assay; assay type: cell-based

Row | Compound | IC50 [1] [µM] | LED [2] [µM] | IC50 [3] [µM] | IC50 [4] [µM]
1 | CC(=O)N[C@H]1CSSC[C@@H]2NC(=O)[C@@H]3CSSC[C@@H](C(=O)N[C@@H](CCCCN)C(=O)N[C@@H](CCCCN)C(=O)N[C@@H](CCCCN)C(=O)N[C@@H](CC(C)C)C(=O)N[C@@H](Cc4c[nH]c5ccccc45)C(N)=O)NC(=O)[C@H](Cc4c[nH]c5ccccc45)NC(=O)[C@H](CC(C)C)NC(=O)[C@H](C(C)C)NC(=O)[C@H](CSSC[C@H](NC(=O)[C@@H]4CCCN4C(=O)[C@H](CCCCN)NC(=O)[C@H](CC(C)C)NC(=O)[C@H](Cc4ccccc4)NC(=O)[C@H](CCC(=O)O)NC(=O)[C@H](CCC(N)=O)NC1=O)C(=O)N[C@@H](CC(=O)O)C(=O)N[C@@H](CCCCN)C(=O)N[C@@H](CCC(=O)O)C(=O)N[C@@H](CCCNC(=N)N)C(=O)N[C@@H](CCCCN)C(=O)N3)NC(=O)[C@H](CCC(=O)O)NC(=O)[C@H](CC(C)C)NC(=O)CNC(=O)[C@H](CCC(=O)O)NC2=O (Ac-CQEFLKPCDKERKCCEGLECVLWCKKKLW-NH2; disulfide 1-15, 8-20, 14-24) | > 17 | 10 | > 17 | 0.253
2 | CC(=O)N[C@H]1CSSC[C@@H]2NC(=O)[C@@H]3CSSC[C@@H](C(=O)N[C@@H](CCCCN)C(=O)N[C@@H](CCCCN)C(=O)N[C@@H](CCCCN)C(=O)N[C@@H](CC(C)C)C(=O)N[C@@H](Cc4c[nH]c5ccccc45)C(N)=O)NC(=O)[C@H](Cc4c[nH]c5ccccc45)NC(=O)[C@H](C4CCCCC4)NC(=O)[C@H](CCCCN)NC(=O)[C@H](CSSC[C@H](NC(=O)[C@@H]4CCCN4C(=O)[C@H](CCC(=O)O)NC(=O)[C@H](CC(F)(F)F)NC(=O)[C@H](Cc4cccc(Cl)c4)NC(=O)[C@H](CCCCN)NC(=O)[C@H](CCC(N)=O)NC1=O)C(=O)N[C@@H](CC(=O)O)C(=O)N[C@@H](CO)C(=O)N[C@@H](CCC(=O)O)C(=O)N[C@@H](CCCNC(=N)N)C(=O)N[C@@H](CCCCN)C(=O)N3)NC(=O)[C@H](CCC(=O)O)NC(=O)[C@H](CC(C)C)NC(=O)CNC(=O)[C@H](CCC(=O)O)NC2=O (Ac-CQK[Phe(3-Cl)][Abu(4,4,4-F3)]EPCDSERKCCEGLECK[Chg]WCKKKLW-NH2; disulfide 1-15, 8-20, 14-24) | > 17 | 33 | > 17 | 0.064
3 | CC(=O)N[C@H]1CSSC[C@@H]2NC(=O)[C@@H]3CSSC[C@@H](C(=O)N[C@@H](CCCCN)C(=O)N[C@@H](CCCCN)C(=O)N[C@@H](CCCCN)C(=O)N[C@@H](CC(C)C)C(=O)N[C@@H](Cc4c[nH]c5ccccc45)C(N)=O)NC(=O)[C@H](Cc4c[nH]c5ccccc45)NC(=O)[C@H](CC(C)C)NC(=O)[C@H](C(C)C)NC(=O)[C@H](CSSC[C@H](NC(=O)[C@@H]4CCCN4C(=O)[C@H](C)NC(=O)[C@H](CC(C)C)NC(=O)[C@H](Cc4ccccc4)NC(=O)[C@H](CCCCN)NC(=O)[C@H](CCC(N)=O)NC1=O)C(=O)N[C@@H](CC(=O)O)C(=O)N[C@@H](CCCCN)C(=O)N[C@@H](/C=C/C(=O)O)C(=O)N[C@@H](CCCNC(=N)N)C(=O)N[C@@H](CCCCN)C(=O)N3)NC(=O)[C@H](CCC(=O)O)NC(=O)[C@H](CC(C)C)NC(=O)CNC(=O)[C@H](CCC(=O)O)NC2=O (Ac-CQKFLAPCDK[X1]RKCCEGLECVLWCKKKLW-NH2; disulfide 1-15, 8-20, 14-24) | > 17 | 33 | > 17 | 0.099
4 | CC(=O)N[C@H]1CSSC[C@@H]2NC(=O)[C@@H]3CSSC[C@@H](C(=O)N[C@@H](CCCCN)C(=O)N[C@@H](CCCCN)C(=O)N[C@@H](CCCCN)C(=O)N[C@@H](CC(C)C)C(N)=O)NC(=O)[C@H](Cc4c[nH]c5ccccc45)NC(=O)[C@H](C4CCCCC4)NC(=O)[C@H](CCCCN)NC(=O)[C@H](CSSC[C@H](NC(=O)[C@@H]4CCCN4C(=O)[C@H](CCC(=O)O)NC(=O)[C@H](CC(F)(F)F)NC(=O)[C@H](Cc4ccccc4)NC(=O)[C@H](CCCCN)NC(=O)[C@H](CCC(N)=O)NC1=O)C(=O)N[C@@H](CC(=O)O)C(=O)N[C@@H](CO)C(=O)N[C@@H](CCC(=O)O)C(=O)N[C@@H](CCCNC(=N)N)C(=O)N[C@@H](CCCCN)C(=O)N3)NC(=O)[C@H](CCC(=O)O)NC(=O)[C@H](CC(C)C)NC(=O)CNC(=O)[C@H](CCC(=O)O)NC2=O (Ac-CQKF[Abu(4,4,4-F3)]EPCDSERKCCEGLECK[Chg]WCKKKL-NH2; disulfide 1-15, 8-20, 14-24) | > 17 | 100 | > 17 | 0.24
5 | CC(=O)N[C@H]1CSSC[C@@H]2NC(=O)[C@@H]3CSSC[C@@H](C(=O)N[C@@H](CCCCN)C(=O)N[C@@H](CCCCN)C(=O)N[C@@H](CCCCN)C(=O)N[C@@H](CC(C)C)C(=O)N[C@@H](Cc4c[nH]c5ccccc45)C(N)=O)NC(=O)[C@H](Cc4c[nH]c5ccccc45)NC(=O)[C@H](CC(C)C)NC(=O)[C@H](CCCNC(=N)N)NC(=O)[C@H](CSSC[C@H](NC(=O)[C@@H]4CCCN4C(=O)[C@H](CCCCN)NC(=O)[C@H](CC(C)C)NC(=O)[C@H](Cc4ccccc4)NC(=O)[C@H](CCC(=O)O)NC(=O)[C@H](CCC(N)=O)NC1=O)C(=O)N[C@@H](CC(=O)O)C(=O)N[C@@H](CO)C(=O)N[C@@H](CCC(=O)O)C(=O)N[C@@H](CCCNC(=N)N)C(=O)N[C@@H](CCCCN)C(=O)N3)NC(=O)[C@H](CCC(=O)O)NC(=O)[C@H](CC(C)C)NC(=O)CNC(=O)[C@H](CCC(=O)O)NC2=O (Ac-CQEFLKPCDSERKCCEGLECRLWCKKKLW-NH2; disulfide 1-15, 8-20, 14-24) | > 17 | 3.3 | > 17 | 0.091
6 | CC(=O)N[C@H]1CSSC[C@@H]2NC(=O)[C@@H]3CSSC[C@@H](C(=O)N[C@@H](CCCCN)C(=O)N[C@@H](CCCCN)C(=O)N[C@@H](CCCCN)C(=O)N[C@@H](CC(C)C)C(=O)N[C@@H](Cc4c[nH]c5ccccc45)C(N)=O)NC(=O)[C@H](Cc4c[nH]c5ccccc45)NC(=O)[C@H](C4CCCCC4)NC(=O)[C@H](CCCCN)NC(=O)[C@H](CSSC[C@H](NC(=O)[C@@H]4CCCN4C(=O)[C@H](CCC(=O)O)NC(=O)[C@H](CC(F)(F)F)NC(=O)[C@H](CC4CCCCC4)NC(=O)[C@H](CCCCN)NC(=O)[C@H](CCC(N)=O)NC1=O)C(=O)N[C@@H](CC(=O)O)C(=O)N[C@@H](CO)C(=O)N[C@@H](CCC(=O)O)C(=O)N[C@@H](CCCNC(=N)N)C(=O)N[C@@H](CCCCN)C(=O)N3)NC(=O)[C@H](CCC(=O)O)NC(=O)[C@H](CC(C)C)NC(=O)CNC(=O)[C@H](CCC(=O)O)NC2=O (Ac-CQK[Cha][Abu(4,4,4-F3)]EPCDSERKCCEGLECK[Chg]WCKKKLW-NH2; disulfide 1-15, 8-20, 14-24) | > 17 | 30 | > 17 | 0.109
7 | CC(=O)N[C@H]1CSSC[C@@H]2NC(=O)[C@@H]3CSSC[C@@H](C(=O)N[C@@H](CCCCN)C(=O)N[C@@H](CCCCN)C(=O)N[C@@H](CCCCN)C(=O)N[C@@H](CC(C)C)C(=O)N[C@@H](Cc4c[nH]c5ccccc45)C(N)=O)NC(=O)[C@H](Cc4c[nH]c5ccccc45)NC(=O)[C@H](CC(C)C)NC(=O)[C@H](CCCCN)NC(=O)[C@H](CSSC[C@H](NC(=O)[C@@H]4CCCN4C(=O)[C@H](CCCCN)NC(=O)[C@H](CC(C)C)NC(=O)[C@H](Cc4ccccc4)NC(=O)[C@H](CCC(=O)O)NC(=O)[C@H](CCC(N)=O)NC1=O)C(=O)N[C@@H](CC(=O)O)C(=O)N[C@@H](CO)C(=O)N[C@@H](CCC(=O)O)C(=O)N[C@@H](CCCNC(=N)N)C(=O)N[C@@H](CCCCN)C(=O)N3)NC(=O)[C@H](CCC(=O)O)NC(=O)[C@H](CC(C)C)NC(=O)CNC(=O)[C@H](CCC(=O)O)NC2=O (Ac-CQEFLKPCDSERKCCEGLECKLWCKKKLW-NH2; disulfide 1-15, 8-20, 14-24) | > 17 | 3.3 | > 17 | 0.113
8 | CC(=O)N[C@H]1CSSC[C@@H]2NC(=O)[C@@H]3CSSC[C@@H](C(=O)N[C@@H](CCCCN)C(=O)N[C@@H](CCCCN)C(=O)N[C@@H](CCCCN)C(=O)N[C@@H](CC(C)C)C(=O)N[C@@H](Cc4c[nH]c5ccccc45)C(N)=O)NC(=O)[C@H](Cc4c[nH]c5ccccc45)NC(=O)[C@H](CC(C)C)NC(=O)[C@H](CCCCN)NC(=O)[C@H](CSSC[C@H](NC(=O)[C@@H]4CCCN4C(=O)[C@H](C)NC(=O)[C@H](CC(C)C)NC(=O)[C@H](Cc4ccccc4)NC(=O)[C@H](CCCCN)NC(=O)[C@H](CCC(N)=O)NC1=O)C(=O)N[C@@H](CC(=O)O)C(=O)N[C@@H](CCC(=O)O)C(=O)N[C@@H](CCC(=O)O)C(=O)N[C@@H](CCCNC(=N)N)C(=O)N[C@@H](CCCCN)C(=O)N3)NC(=O)[C@H](C(C)C)NC(=O)[C@H](CC(C)C)NC(=O)CNC(=O)[C@H](CCC(=O)O)NC2=O (Ac-CQKFLAPCDEERKCCEGLVCKLWCKKKLW-NH2; disulfide 1-15, 8-20, 14-24) | 15.2 | 3.3 | 10.3 | 0.074
9 | CC(=O)N[C@H]1CSSC[C@@H]2NC(=O)[C@@H]3CSSC[C@@H](C(=O)N[C@@H](CCCCN)C(=O)N[C@@H](CCCCN)C(=O)N[C@@H](CCCCN)C(=O)N[C@@H](CC(C)C)C(=O)N[C@@H](Cc4c[nH]c5ccccc45)C(N)=O)NC(=O)[C@H](Cc4c[nH]c5ccccc45)NC(=O)[C@H](CC(C)C)NC(=O)[C@H](CCCCN)NC(=O)[C@H](CSSC[C@H](NC(=O)[C@@H]4CCCN4C(=O)[C@H](CCC(=O)O)NC(=O)[C@H](CC(C)C)NC(=O)[C@H](Cc4ccccc4)NC(=O)[C@H](CCCCN)NC(=O)[C@H](CCC(N)=O)NC1=O)C(=O)N[C@@H](CC(=O)O)C(=O)N[C@@H](CCC(=O)O)C(=O)N[C@@H](CCC(=O)O)C(=O)N[C@@H](CCCNC(=N)N)C(=O)N[C@@H](CCCCN)C(=O)N3)NC(=O)[C@H](C(C)C)NC(=O)[C@H](CC(C)C)NC(=O)CNC(=O)[C@H](CCC(=O)O)NC2=O (Ac-CQKFLEPCDEERKCCEGLVCKLWCKKKLW-NH2; disulfide 1-15, 8-20, 14-24) | > 17 | 10 | > 17 | 0.218
